ChEMBL document CHEMBL3046056, “Design, synthesis, and biological activity of novel 4-(3,4-dimethoxyphenyl)-2-methylthiazole-5-carboxylic acid derivatives” (2004)

Key:
Format in all cases: functional
Phytophthora infestans [1] = experiment: Fungicidal activity against tomato late blight disease-causing Phytophthora infestans at 375 g ai/ha
Empoasca fabae [2] = experiment: Insecticidal activity against Empoasca fabae (potato leafhopper) at 600 g ai/ha
Myzus persicae [3] = experiment: Insecticidal activity against Myzus persicae (green peach aphid) at 600 g ai/ha
Phytophthora infestans [4] = experiment: Fungicidal activity against tomato late blight disease-causing Phytophthora infestans at 300 g ai/ha
Empoasca fabae [5] = experiment: Insecticidal activity against Empoasca fabae (potato leafhopper) at 300 g ai/ha
Myzus persicae [6] = experiment: Insecticidal activity against Myzus persicae (green peach aphid) at 300 g ai/ha

Row | SMILES | Activity (Phytophthora infestans [1]) [%] | Activity (Empoasca fabae [2]) [%] | Activity (Myzus persicae [3]) [%] | Activity (Phytophthora infestans [4]) [%] | Activity (Empoasca fabae [5]) [%] | Activity (Myzus persicae [6]) [%]
1 | COC(=O)c1sc(C)nc1-c1ccc(OC)c(OC)c1 | 0 | 40 | 0 |  |  | 
2 | COc1ccc(-c2nc(C)sc2C(=O)O)cc1OC | 0 | 20 | 0 |  |  | 
3 | COc1ccc(-c2nc(C)sc2C(=O)N2CCOCC2)cc1OC | 90 | 20 | 20 |  |  | 
4 | CCN(C)C(=O)c1sc(C)nc1-c1ccc(OC)c(OC)c1 | 0 | 40 | 40 |  |  | 
5 | COc1ccc(-c2nc(C)sc2C(=O)N(C)OC)cc1OC | 50 | 20 | 20 |  |  | 
6 | COc1ccc(-c2nc(C)sc2C(=O)NCC#N)cc1OC | 0 | 0 | 0 |  |  | 
7 | CCN(CC)C(=O)c1sc(C)nc1-c1ccc(OC)c(OC)c1 | 0 | 40 | 0 |  |  | 
8 | COc1ccc(-c2nc(C)sc2C(=O)NCCCn2ccnc2)cc1OC | 75 | 0 | 0 |  |  | 
9 | C#CC(C)(C)NC(=O)c1sc(C)nc1-c1ccc(OC)c(OC)c1 | 0 | 40 | 60 |  |  | 
10 | C#CC(C)(CC)NC(=O)c1sc(C)nc1-c1ccc(OC)c(OC)c1 (stereo not drawn) | 90 | 0 | 20 |  |  | 
11 | COc1ccc(-c2nc(C)sc2C(=O)Nc2ccccc2)cc1OC | 0 | 40 | 20 |  |  | 
12 | COc1ccc(-c2nc(C)sc2C(N)=O)cc1OC | 0 | 20 | 0 |  |  | 
13 | C#CCOC(=O)c1sc(C)nc1-c1ccc(OC)c(OC)c1 | 0 | 20 | 20 |  |  | 
14 | COc1ccc(-c2nc(C)sc2C(=O)OCC(C)C)cc1OC | 75 | 20 | 20 |  |  | 
15 | COc1ccc(C(=CC(=O)N2CCOCC2)c2ccc(Cl)cc2)cc1OC [DIMETHOMORPH] |  |  |  | 100 | 0 | 0
16 | COc1ccc(/C(=C\C(=O)N2CCOCC2)c2ccc(F)cc2)cc1OC [FLUMORPH] |  |  |  | 100 | 0 | 0
